Results reported in PubChem BioAssay (NCI).
Values joined by “and” are separate entries in the source; they are usually repeats but may differ in a detail not shown here. Equal entries are not always repeated.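 Exposure lasted 48 hours, with cells grown in 96-well plates and compounds tested at five concentrations. GI50 marks 50% less growth. TGI: concentration producing complete growth inhibition.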

Experiments:
Test in all cases: DTP human tumour cell line panel, 48 h
A498 renal = test system: A498 renal
BT-549 breast = test system: BT-549 breast
CAKI-1 renal = test system: CAKI-1 renal
HCT-116 colon = test system: HCT-116 colon
HOP-62 NSCLC = test system: HOP-62 NSCLC
MALME-3M melanoma = test system: MALME-3M melanoma
OVCAR-3 ovarian = test system: OVCAR-3 ovarian
SK-MEL-2 melanoma = test system: SK-MEL-2 melanoma
SK-OV-3 ovarian = test system: SK-OV-3 ovarian
T-47D breast = test system: T-47D breast

| SMILES | GI50 (A498 renal) | TGI (A498 renal) | GI50 (BT-549 breast) | TGI (BT-549 breast) | GI50 (CAKI-1 renal) | TGI (CAKI-1 renal) | GI50 (HCT-116 colon) | TGI (HCT-116 colon) [µM] | GI50 (HOP-62 NSCLC) | TGI (HOP-62 NSCLC) | GI50 (MALME-3M melanoma) | TGI (MALME-3M melanoma) | GI50 (OVCAR-3 ovarian) | TGI (OVCAR-3 ovarian) | GI50 (SK-MEL-2 melanoma) | TGI (SK-MEL-2 melanoma) | GI50 (SK-OV-3 ovarian) | TGI (SK-OV-3 ovarian) | GI50 (T-47D breast) | TGI (T-47D breast) |
| --- | --- | --- | --- | --- | --- | --- | --- | --- | --- | --- | --- | --- | --- | --- | --- | --- | --- | --- | --- | --- |
| COc1cc(NC(C)CCCN2C(=O)c3ccccc3C2=O)c2ncccc2c1OC (stereo not given) | 34.4 µM | > 100 µM | 23.4 µM | 83.7 µM | 29.5 µM | 74.4 µM | 31.2 µM | > 100 | 52.6 µM | > 100 µM | 22.9 µM | 58.3 µM | 25.8 µM | > 100 µM | 29 µM | > 100 µM | > 100 µM | > 100 µM | 35.7 µM | > 100 µM |
| Cc1[nH]n(-c2cccc(Cl)c2)c(=O)c1/C=C1\C=c2ccccc2=CC1=O | > 100 µM | > 100 µM | 27.3 µM | > 100 µM | > 100 µM | > 100 µM | > 100 µM | > 100 | 31.4 µM | > 100 µM | 29.2 µM | > 100 µM | 59.5 µM | > 100 µM | 21.8 µM | 70.2 µM | 26.5 µM | > 100 µM | > 100 µM | > 100 µM |
| CC(C)[C@H](C(=O)O[C@@H]1/C=C/C(=O)O[C@@H](C)CCC/C=C/[C@@H]2C[C@H](O)C[C@H]21)N(C)C | 2.08 µM | 6.62 µM | 7.13 µM | 35.6 µM | 19.4 µM | > 73.8 µM | 14.5 µM | 37.2 | 17.2 µM | > 100 µM | 6.97 µM | 32.1 µM | 8.54 µM | 37.8 µM | 17 µM | > 63.2 µM | 17.9 µM | > 96.7 µM | 31 µM | > 100 µM |
| c1cc2c(c(NC3=NCCN3)c1)CCCC2 |  | > 100 µM |  | > 100 µM |  | > 100 µM |  | > 100 |  | > 100 µM |  | > 100 µM |  | > 100 µM |  | > 100 µM |  | > 100 µM |  | > 100 µM |
| COC(=O)[C@]12CC[C@@H](C)[C@H](C)[C@@H]1C1=CC[C@@H]3[C@@]4(C)CC(=O)[C@H](O)[C@@](C)(CO)[C@@H]4C(=O)C[C@@]3(C)[C@]1(C)CC2 | 19.4 µM | 33.9 µM | 11.3 µM | 23.5 µM | 11.5 µM | 24 µM | 10.9 µM | 23.3 | 13.3 µM | 27.4 µM | 4.52 µM | 22 µM | 11.6 µM | 24.8 µM | 14.5 µM | 29.4 µM | 16.6 µM | 30.5 µM | 2.44 µM | 26.4 µM |
| O=C(c1ccco1)c1c(C(F)(F)F)n([O-])c2ccc(F)cc2[n+]1=O | 8.53 µM | 24.3 µM | 0.996 µM | 2.98 µM | 1.6 µM | 3.26 µM | 0.824 µM | 2.41 | 3 µM | 13.7 µM | 1.09 µM | 3.21 µM | 0.757 µM | 2.24 µM | 0.91 µM | 2.47 µM | 6.02 µM | 18.6 µM | 0.54 µM | 3.21 µM |
| O=C1NC(=N[C@H](CO)c2ccccc2)S/C1=C\c1ccc2ncccc2c1 | 2.07 µM | 7.13 µM | 3.95 µM | > 16 µM | 3.75 µM | > 16 µM | 1.68 µM | > 21 | 6.73 µM | > 25 µM | 6.21 µM | 22.4 µM | 4.13 µM | 13.7 µM | 5.49 µM | 14.3 µM | 5.11 µM | 17.6 µM | 4.18 µM | > 24.1 µM |
| COC(=O)C1(C)CCCC2(C)c3cc(OC)ccc3C(=O)C(Br)C12 (stereo not given) |  | > 10 µM |  | > 10 µM |  | > 10 µM |  | 7.23 |  | > 10 µM |  | 9.71 µM |  | > 10 µM |  | > 10 µM |  | > 10 µM |  | > 10 µM |
| CC12CC(=O)C3C(CCC4=CC(=O)CCC43C)C1CC=C2CC(=O)O (stereo not given) |  | > 100 µM |  | > 100 µM |  | > 100 µM |  | > 100 |  | > 100 µM |  | > 100 µM |  | > 100 µM |  | > 100 µM |  | > 100 µM |  | > 100 µM |
| C[C@H](c1ccccc1)N(CCC(=O)O)C(=O)CCN(C(=O)CCN(C(=O)CCN[C@H](C)c1ccccc1)[C@H](C)c1ccccc1)[C@H](C)c1ccccc1 | > 100 µM | > 100 µM | > 100 µM | > 100 µM | > 100 µM | > 100 µM | > 100 µM | > 100 | > 100 µM | > 100 µM | > 100 µM | > 100 µM | > 100 µM | > 100 µM | > 100 µM | > 100 µM | > 100 µM | > 100 µM | > 100 µM | > 100 µM |
| COc1ccc(/C=C2\CCC(Cc3ccccc3)(CN(C)C)C2=O)cc1 (stereo not given) |  | > 100 µM |  | > 100 µM |  | > 100 µM |  | > 100 |  | > 100 µM |  | > 100 µM |  | > 100 µM |  | > 100 µM |  | > 100 µM |  | > 100 µM |
| O=C1/C(=C/c2ccccc2[N+](=O)[O-])COc2ccc(O)c(O)c21 | 2.11 µM | 5.07 µM | 0.882 µM | 4.02 µM | 0.607 µM | 1.99 µM | 0.297 µM | 1.1 | 3.55 µM | 14.5 µM | 0.866 µM | 3 µM | 0.295 µM | 0.976 µM | 2.18 µM | 5.99 µM | 3.91 µM | 14.3 µM | 0.918 µM | 4.72 µM |
| N#Cc1ccc(/C=C/C(=O)c2ccccc2)cc1 | 14.3 µM and 12.3 µM | 29.5 µM and 24.9 µM | 15.2 µM and 16.7 µM | 29.3 µM and 30.5 µM | 15.1 µM and 9.59 µM | 29.6 µM and 22.8 µM | 1.51 µM and 1.72 µM | 3.17 | 22 µM and 18.4 µM | > 54.9 µM and 33.8 µM | 18.2 µM and 14.9 µM | 33.6 µM and 31 µM | 13.8 µM and 5.71 µM | 26.6 µM and 13 µM | 18.9 µM and 18.8 µM | 39.1 µM and 37.8 µM | 17.3 µM and 20.2 µM | 33.2 µM and 44.9 µM | 11.1 µM and 12.2 µM | 24.7 µM and 27.7 µM |
| Oc1cccc(-c2nc(-c3ccccc3)[nH]c2-c2ccncc2)c1 | 6.07 µM | 17.4 µM | > 25 µM | > 25 µM | 18.7 µM | > 25 µM | 9.91 µM | > 25 | 16.8 µM | > 25 µM | 0.719 µM | 8.01 µM | 18.6 µM | > 25 µM | 6.91 µM | 18.9 µM | 9.29 µM | > 25 µM | 9.31 µM | 24.3 µM |
| CCOC(=O)c1cc(-c2ccccc2)[nH]c1N/N=C/c1c(Cl)cccc1Cl | 1.08 µM | 43.7 µM | 1.24 µM | 18.9 µM | 0.409 µM | 31.1 µM | 0.729 µM | > 36.7 | 2.37 µM | 41.4 µM | 3.9 µM | > 100 µM | 0.248 µM | 1.04 µM | 0.961 µM | 87.5 µM | 2.4 µM | > 100 µM | > 21.2 µM | > 100 µM |
| O=C(Nc1ccccc1)Nc1ccc(Cl)c(Cl)c1 | 5.04 µM | 68.5 µM | 4.99 µM | 85.9 µM | 2.71 µM | 24.7 µM | 3.03 µM | > 100 | 5.84 µM | > 100 µM | 2.86 µM | 21.4 µM | 2.44 µM | 8.76 µM | 2.32 µM | 9.97 µM | 5.52 µM | > 100 µM | 2.57 µM | > 100 µM |
